Assay results as given in patent publication US20130158035A1, “[…] COMPOUNDS” (Brigham Young University, priority 2010, published 2013).

Each molecule was assayed on MDCK cells (assay: HGF-induced epithelial-mesenchymal transition / migration of MDCK cells on transwell filters (crystal violet densitometry)). Details: Canis lupus familiaris, MDCK, 24 h, Table 3, 10 μM compound, then HGF, percentage like untreated controls (unstimulated cells = maximal effect, HGF only = nil).
Format: cell-based
Procedure: MDCK cells were seeded at confluency into the wells of a transwell filter in DMEM with 10% fetal bovine serum. Cells were cultured for 24 hours. Test compounds, dissolved in DMSO, were added to each test well to a 10 μM final concentration, and then hepatocyte growth factor (HGF) was then added. The MDCK cells were cultured for 24 hours. Concurrently, controls treated with and without HGF and with no test compounds were also prepared.
After post-HGF addition culturing, transwell filters were prepared by repeated washing using ice cold PBS. The cells were then fixed with paraformaldehyde (3.7%) on ice for 15 minutes to the filters. After fixation, the transwell filters were washed repeatedly with PBS followed by staining with crystal violet for 15 minutes. The transwell filters were washed again with distilled water.
The upper surface of the transwell filters were swabbed using a cotton-tipped probe. The filters were photographed using a gel documentation system. Densitometry measurements were made on the test samples and compared with control samples.
In the case of `NC(=O)c1ccccc1/N=C/c1ccccc1Cl` [Compound A-2], the inhibition at 10 µM is reported as 75.7%.
`Cc1ccc(/C=N/c2ccccc2C(N)=O)s1` [Compound A-10] gave an inhibition at 10 µM of 91.8%.
`COc1cc(CNc2ccc(N3CCOCC3)cc2)cc(Br)c1OC` [Compound A-23] gave an inhibition at 10 µM of 31.9%.
`NC(=O)c1ccccc1/N=C/c1cccc(O)c1` [Compound A-8] was tested, and the inhibition at 10 µM was 19.7%.

Same assay, conditions: Canis lupus familiaris, MDCK, 24 h, Table 4, 10 μM compound, then HGF, percentage like untreated controls (unstimulated cells = maximal effect, HGF only = nil)
`Cc1nc(NC(=O)c2cccc([N+](=O)[O-])c2)ccc1I` [Compound B-3] showed an inhibition at 10 µM of 95.9%.
`COc1ccc(C(=O)Nc2cccc(C)n2)cc1[N+](=O)[O-]` [Compound B-11] was tested, and the inhibition at 10 µM was < 5%.

Same assay, conditions: Canis lupus familiaris, MDCK, 24 h, Table 5, 10 μM compound, then HGF, percentage like untreated controls (unstimulated cells = maximal effect, HGF only = nil)
With `CCN1CCN(c2ccc(NC(=O)c3cc(OC)c(OC)c(OC)c3)cc2Cl)CC1` [Compound B-26] the inhibition at 10 µM was > 5%.
`CCC(=O)Nc1ccc(NC(=O)c2cc(OC)c(OC)c(OC)c2)cc1` [Compound B-23] was tested, and the inhibition at 10 µM was 29.4%.
Work on `Cc1cc(NC(=O)c2cccc([N+](=O)[O-])c2C)c(C)cc1I` [Compound B-32] yielded an inhibition at 10 µM of 36.1%.
With `CC(=O)c1cccc(NC(=O)c2ccc(-c3ccccc3)cc2)c1` [Compound B-16] the inhibition at 10 µM was > 5%.
Molecule `Cc1cc(NC(=O)c2cccc([N+](=O)[O-])c2)ccc1I` [Compound B-31] has an inhibition at 10 µM of 53.1%.

Same assay, conditions: Canis lupus familiaris, MDCK, 24 h, Table 6, 10 μM compound, then HGF, percentage like untreated controls (unstimulated cells = maximal effect, HGF only = nil)
`Cc1c(C(=O)OC2CCCC2)[nH]c2c1C(=O)CC(c1cccs1)C2` (centres unmarked) [Compound C-10] showed an inhibition at 10 µM of 8.8%.
Molecule `Cc1c(C(=O)OC2CCCC2C)[nH]c2c1C(=O)CC(c1cccs1)C2` (centres unmarked) [Compound C-18] has an inhibition at 10 µM of 92.2%.

Same assay, conditions: Table 1; 10 μM compound, then HGF, 24 hours; percentage like untreated controls (unstimulated cells = maximal effect, HGF only = nil)
In the case of `COc1ccc(C2CC(=O)Nc3cc4c(cc32)OCCO4)cc1` (centres unmarked) [Compound 24], the “Assay Value” is reported as 100%.
`COc1cccc(C2CC(=O)Nc3cc4c(cc32)OCCO4)c1OC` (centres unmarked) [Compound 23] was tested, and the “Assay Value” was 69.3%.
In the case of `COc1cc(C2CC(=O)Nc3cc4c(cc32)OCCO4)cc(OC)c1OC` (centres unmarked) [Compound 3], the “Assay Value” is reported as 92.4%.
For `O=C1CC(c2cccc(O)c2)c2cc3c(cc2N1)OCCO3` (centres unmarked) [Compound 19], the “Assay Value” was 7.8%.
`COc1cc(C2CC(=O)Nc3cc4c(cc32)OCCO4)cc(Br)c1OC` (centres unmarked) [Compound 6] was tested, and the “Assay Value” was 52.2%.
`COc1ccc(OC)c(C2CC(=O)Nc3cc4c(cc32)OCCO4)c1` (centres unmarked) [Compound 16] was tested, and the “Assay Value” was 15.1%.
`COc1ccc(C2CC(=O)Nc3cc4c(cc32)OCCO4)cc1OC` (centres unmarked) [Compound 15] was tested, and the “Assay Value” was 12.9%.
`COc1cc(Br)c(C2CC(=O)Nc3cc4c(cc32)OCCO4)cc1OC` (centres unmarked) [Compound 5] was tested, and the “Assay Value” was 29.3%.

Same assay, conditions: Table 2; 10 μM compound, then HGF, 24 hours; percentage like untreated controls (unstimulated cells = maximal effect, HGF only = nil)
In the case of `CN(C)c1ccc(C2CC(=O)Nc3cc4c(cc32)OCO4)cc1` (centres unmarked) [Compound 80], the “Assay Value” is reported as <5%.
In the case of `O=C1CC(c2ccc(Cl)c(Cl)c2)c2cc3c(cc2N1)OCCO3` (centres unmarked) [Compound 51], the “Assay Value” is reported as <5%.
In the case of `O=C1CC(c2ccccc2F)c2cc3c(cc2N1)OCCO3` (centres unmarked) [Compound 69], the “Assay Value” is reported as <5%.
In the case of `Cc1ccc(C2CC(=O)Nc3cc4c(cc32)OCO4)cc1Br` (centres unmarked) [Compound 89], the “Assay Value” is reported as <5%.
With `COc1cccc(C2CC(=O)Nc3cc4c(cc32)CCC4)c1OC` (centres unmarked) [Compound 92] the “Assay Value” was <5%.
In the case of `CCOc1cc2c(cc1OCC)C(c1ccccc1F)CC(=O)N2` (centres unmarked) [Compound 74], the “Assay Value” is reported as <5%.
In the case of `COc1cccc(C2CC(=O)Nc3cc4c(cc32)OCCO4)c1OC` (centres unmarked) [Compound 46], the “Assay Value” is reported as <5%.
With `COc1cccc(C2CC(=O)Nc3cc4c(cc32)CCC4)c1` (centres unmarked) [Compound 99] the “Assay Value” was <5%.
For `O=C1CC(c2cc3c(cc2[N+](=O)[O-])OCO3)c2cc3c(cc2N1)CCC3` (centres unmarked) [Compound 91], the “Assay Value” was <5%.
`CC(C)Oc1ccccc1C1CC(=O)Nc2cc3c(cc21)OCCO3` (centres unmarked) [Compound 50] was tested, and the “Assay Value” was <5%.
For `COc1cc2c(cc1OC)C(c1cccc(OCc3ccccc3)c1)CC(=O)N2` (centres unmarked) [Compound 60], the “Assay Value” was <5%.
In the case of `Cc1ccc(C)c(C2CC(=O)Nc3cc4c(cc32)OCO4)c1` (centres unmarked) [Compound 83], the “Assay Value” is reported as <5%.

Same assay, conditions: Table 3; 10 μM compound, then HGF, 24 hours; percentage like untreated controls (unstimulated cells = maximal effect, HGF only = nil)
For `COc1cc(CNc2ccc(C)c(Cl)c2)cc(Cl)c1OC` [Compound A-21], the “Assay Value” was 57.5%.
`NC(=O)c1ccccc1/N=C/c1ccc2ccccc2c1` [Compound A-16] was tested, and the “Assay Value” was <5%.
